Laboratory results taken from the supplement of paper PMC10307832.

Columns and labels:
Assay in all cases: relative viability (nuclei count vs DMSO), 5 days (fraction); higher = more cells survive
[1] = compound: C1=CC(=CC=C1NC(=S)NNC2=C(C=C(C=C2[N+](=O)[O-])C(F)(F)F)[N+](=O)[O-])F [Kobe2602] + CC(C)C[C@H](NC(=O)[C@H](Cc1ccccc1)NC(=O)c1cnccn1)B(O)O [Bortezomib] (partner 0.002 µM)
How it was run: (§1)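 Lung cancer cell lines in 1536-well plates were dosed by pin tool the day after seeding, either with one drug alone or with a fixed anchor-drug dose plus five library-drug doses (not always all listed) in √10 steps. After 5 days, cells were fixed and their nuclei stained in one step (final 0.05% Triton X-100, 1% formaldehyde, 1 ug/ml Hoechst), then counted on 4× images. Relative viability is the nuclei count in treated wells divided by that in vehicle wells. Values are medians of duplicate plates.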

[2] = compound: C1=CC(=CC=C1NC(=S)NNC2=C(C=C(C=C2[N+](=O)[O-])C(F)(F)F)[N+](=O)[O-])F [Kobe2602] + Cc1cc(Nc2cc(N3CCN(C)CC3)nc(Sc3ccc(NC(=O)C4CC4)cc3)n2)n[nH]1 [Tozasertib] (partner 0.1 µM)
How it was run: as §1

[3] = compound: COc1cc2nccc(Oc3ccc(NC(=O)C4(C(=O)Nc5ccc(F)cc5)CC4)cc3)c2cc1OC [Cabozantinib] + N=C(N)NC(=N)NCCc1ccccc1 [Phenformin] (partner 250 µM)
How it was run: as §1

[4] = compound: COc1cc2nccc(Oc3ccc(NC(=O)C4(C(=O)Nc5ccc(F)cc5)CC4)cc3)c2cc1OC [Cabozantinib] + Nc1ncn([C@H]2C[C@H](O)[C@@H](CO)O2)c(=O)n1 [Decitabine] (partner 2 µM)
How it was run: as §1

| Cell Line | relative viability ([1]; first compound 0.2 µM) | relative viability ([1]; first compound 0.6325 µM) | relative viability ([1]; first compound 2 µM) | relative viability ([1]; first compound 6.325 µM) | relative viability ([1]; first compound 20 µM) | relative viability ([2]; first compound 0.2 µM) | relative viability ([2]; first compound 0.6325 µM) | relative viability ([2]; first compound 2 µM) | relative viability ([2]; first compound 6.325 µM) | relative viability ([2]; first compound 20 µM) | relative viability ([3]; first compound 0.06325 µM) | relative viability ([3]; first compound 0.2 µM) | relative viability ([3]; first compound 0.6325 µM) | relative viability ([3]; first compound 2 µM) | relative viability ([4]; first compound 0.02 µM) | relative viability ([4]; first compound 0.06325 µM) | relative viability ([4]; first compound 0.2 µM) | relative viability ([4]; first compound 0.6325 µM) | relative viability ([4]; first compound 2 µM) | relative viability ([3]; first compound 0.02 µM) |
| --- | --- | --- | --- | --- | --- | --- | --- | --- | --- | --- | --- | --- | --- | --- | --- | --- | --- | --- | --- | --- |
| LC-2-ad | 0.946 | 1 | 0.941 | 1.02 | 0.993 | 0.478 | 0.534 | 0.489 | 0.453 | 0.472 | 0.68 | 0.574 | 0.604 | 0.546 | 0.814 | 0.811 | 0.772 | 0.633 | 0.539 |  |
| LCLC-97TM1 | 0.691 | 0.757 | 0.501 | 0.611 | 0.526 | 0.219 | 0.292 | 0.175 | 0.186 | 0.196 | 0.461 | 0.5 | 0.431 | 0.45 | 0.24 | 0.262 | 0.252 | 0.265 | 0.21 | 0.229 |
| LCLC-103H | 1.15 | 1.11 | 1.04 | 1.13 | 1.01 | 0.498 | 0.535 | 0.469 | 0.436 | 0.479 | 0.354 | 0.27 | 0.371 | 0.306 | 0.716 | 0.791 | 0.722 | 0.721 | 0.748 | 0.296 |
| LOU-NH91 | 0.518 | 0.454 | 0.469 | 0.478 | 0.527 | 0.703 | 0.703 | 0.658 | 0.685 | 0.739 | 0.931 |  | 0.792 | 0.731 | 0.798 | 0.825 | 0.654 | 0.791 | 0.802 | 0.602 |
| LU99A | 1.13 | 1.39 | 1.12 | 1.17 | 1.22 | 0.287 | 0.323 | 0.286 | 0.237 | 0.298 | 0.934 | 0.925 | 0.696 | 0.89 | 0.843 | 1.01 | 0.854 | 0.787 | 0.882 | 0.766 |
| LXF-289 | 0.968 | 1.05 | 0.955 | 0.97 | 0.988 | 0.192 | 0.191 | 0.181 | 0.203 | 0.185 | 0.544 | 0.5 | 0.508 | 0.493 | 0.353 | 0.395 | 0.392 | 0.433 | 0.377 | 0.524 |
| NCI-H23 | 1.01 | 1.11 | 0.973 | 0.998 | 1.09 | 0.464 | 0.342 | 0.308 | 0.829 | 0.236 | 0.938 | 0.8 | 0.825 | 0.814 |  | 0.348 | 0.337 | 0.303 | 0.327 |  |
| NCI-H322M | 1.23 | 1.23 | 1.28 | 1.2 | 1.21 | 0.518 | 0.534 | 0.493 | 0.538 | 0.533 | 0.922 | 0.589 | 0.803 | 0.816 | 0.701 | 0.719 | 0.675 | 0.798 | 0.744 | 0.779 |
| NCI-H441 | 0.549 | 0.582 | 0.527 | 0.575 | 0.687 | 0.692 | 0.638 | 0.543 | 0.708 | 0.635 | 0.775 | 1.02 | 0.883 | 0.902 | 0.204 | 0.24 | 0.241 | 0.273 | 0.231 | 0.556 |
| NCI-H460 | 0.99 | 1.09 | 1.09 | 1.21 | 1.05 | 0.342 | 0.402 | 0.411 | 0.154 | 0.0739 | 0.563 | 0.576 | 0.512 | 0.508 | 0.509 | 0.477 | 0.724 | 0.51 | 0.486 | 0.535 |
| NCI-H520 | 0.612 | 0.713 | 0.511 | 0.593 | 0.537 | 0.519 | 0.507 | 0.402 | 0.38 | 0.481 | 0.598 | 0.65 | 0.672 | 0.432 | 0.525 | 0.602 | 0.519 | 0.547 | 0.504 | 0.608 |
| NCI-H596 | 1.08 | 1 | 1.08 | 0.987 | 0.965 | 0.763 | 0.763 | 0.813 | 0.798 | 0.746 | 0.883 | 0.778 | 0.796 | 0.664 | 1.06 | 1.39 | 1.07 | 1.01 | 0.98 | 0.728 |
| NCI-H647 | 0.911 | 1.22 | 0.889 | 0.882 | 0.938 | 0.213 | 0.315 | 0.181 | 0.192 | 0.347 | 0.596 | 0.541 | 0.49 | 0.322 | 0.383 | 0.534 | 0.441 | 0.433 | 0.391 | 0.488 |
| NCI-H650 | 0.882 | 1.07 | 0.676 | 0.912 | 0.956 | 0.738 | 0.757 | 0.746 | 0.789 | 0.623 | 0.497 | 0.454 | 0.465 | 0.404 | 0.315 | 0.372 | 0.45 | 0.338 | 0.304 |  |
| NCI-H661 | 0.936 | 0.83 | 0.78 | 0.796 | 0.755 | 0.382 | 0.34 | 0.376 | 0.376 | 0.355 | 0.252 | 0.283 | 0.335 | 0.286 | 0.6 | 0.608 | 0.563 | 0.632 | 0.69 | 0.273 |
| NCI-H727 | 0.901 | 0.883 | 0.83 | 0.885 | 0.851 | 0.716 | 0.583 | 0.741 | 0.702 | 0.504 | 0.617 | 0.477 | 0.495 | 0.528 | 0.595 | 0.976 | 0.881 | 0.865 | 0.907 | 0.447 |
